Tests used:
Septoria tritici [1] = assay: Assay for fungicidal effect on Septoria tritici, plate medium 1.25 mg/L (Experimental Example 9); type: cell-based; details: for inhibition at 1.25 µg/mL: Zymoseptoria tritici, read-out: growth inhibition grade
Procedure: Each inventive compound was dissolved in 2 ml of dimethyl sulfoxide. 0.6 ml of this solution was added to 60 nil of a PDA medium (potato dextrose agar medium) at about 60 degrees C., which was mixed thoroughly in a 100-ml conical flask, and poured into a dish, where it was solidified, thereby obtaining a plate medium containing the inventive compound at 50 mg/L and 5 mg/L. On the other hand, a subject microorganism previously cultured on a plate medium was cut out using a cork borer whose diameter was 4 mm, and inoculated to the test compound-containing plate medium described above. […] The growth degree of the microorganism on the test compound-containing plate medium thus observed was compared with the growth degree of the microorganism in the untreated group, and % mycelial growth inhibition was calculated by the following equation. R=100(dc−dt)/dc wherein R=% mycelial extension inhibition, dc=flora diameter in untreated plate, dt=flora diameter in treated plate. The results obtained as described above were evaluated as one of the 5 grades according to the following criteria. […] In this Experimental Example, the fungicidal effects of the inventive compounds on Septoria tritici were examined by the methods described in the Experimental Example 5. In this Experimental Example, the inventive compounds were diluted at 1.25 mg/L.

Aureobasidium sp. = assay: Plate medium assay, industrial material deteriorating microorganism, Aureobasidium (Experimental Example 5); type: cell-based; details: treatment at 50 mg/l, PDA plate medium, read-out: growth inhibition grade
Procedure: (§1) In this Experimental Example, the fungicidal effects of the inventive compounds on various phytopathogenic fungi for plants and hazardous microorganism for industrial materials were examined by the methods described below. Each inventive compound was dissolved in 2 ml of dimethyl sulfoxide. 0.6 ml of this solution was added to 60 nil of a PDA medium (potato dextrose agar medium) at about 60 degrees C., which was mixed thoroughly in a 100-ml conical flask, and poured into a dish, where it was solidified, thereby obtaining a plate medium containing the inventive compound at 50 mg/L and 5 mg/L. On the other hand, a subject microorganism previously cultured on a plate medium was cut out using a cork borer whose diameter was 4 mm, and inoculated to the test compound-containing plate medium described above. […] The growth degree of the microorganism on the test compound-containing plate medium thus observed was compared with the growth degree of the microorganism in the untreated group, and % mycelial growth inhibition was calculated by the following equation. R=100(dc-dt)/dc wherein R=% mycelial extension inhibition, dc=flora diameter in untreated plate, dt=flora diameter in treated plate. The results obtained as described above were evaluated as one of the 5 grades according to the following criteria.

Coriolus versicolor = assay: Plate medium assay, wood denaturing microorganism Kawaratake (Experimental Example 5); type: cell-based; details: Trametes versicolor; treatment at 50 mg/l, PDA plate medium; read-out: growth inhibition grade
Procedure: as §1

Botrytis cinerea = assay: Efficacy test against cucumber gray mold (Experimental Example 1); type: in vivo; details: 96 h, four days after inoculation, read-out: Protective value; for pest or weed control at 50 µg/mL: 50 mg/L sprayed at 1,000 L/ha; for pest or weed control at 100 µg/mL: 100 mg/L sprayed at 1,000 L/ha
Procedure: Onto a cucumber (variety:SHARP1) plant in its cotyledon phase grown using a square plastic pot (6 cm×6 cm), a wettable formulation such as Formulation Example 1 which was diluted and suspended in water at a certain concentrations (100 mg/L and 50 mg/L) was sprayed at a rate of 1,000 L/ha. The sprayed leaves were air-dried, and loaded with a paper disc (8 mm in diameter) soaked in a spore suspension of Botrytis cinerea, and kept at 20 degrees C. and a high humidity. Four days after inoculation, the cucumber gray mold lesion degree was investigated, and the protective value was calculated by the following equation. Protective value (%)=(1−mean lesion degree in sprayed plot/mean lesion degree in unsprayed plot)×100

Aspergillus sp. = assay: Plate medium assay, industrial material deteriorating microorganism, Aspergillus (Experimental Example 5); type: cell-based; details: treatment at 50 mg/l, PDA plate medium, read-out: growth inhibition grade
Procedure: as §1

Septoria tritici [2] = assay: Microplate test of biocidal effect on wheat Septoria blotch (Experimental Example 4); type: cell-based; details: Zymoseptoria tritici, 240 h; % mycelium growth inhibition, absorbance 550 nm, 20 degrees C. for about 10 days; read-out: activity level (EC80)
Procedure: A spore suspension of wheat Septoria blotch (Septoria tritici) (spore concentration: 1×10^6 cells/ml) was prepared, and subjected to 100-fold dilution with a PD medium. A flat 96-well microplate was provided and 1 microliter of the test compound solution formed by dissolution in dimethyl sulfoxide (DMSO) at a concentration 100 times the test concentration was dispensed to the microplate, and then 100 microliter of the medium containing the spore was added and stirred thoroughly. […] R=100×(dc−dt)/dc: R: % mycelium growth inhibition dc: Absorbance of non-treatment zone dt: Absorbance of treatment zone

Tyromyces palustris = assay: Plate medium assay, wood denaturing microorganism Oouzuratake (Experimental Example 5); type: cell-based; details: treatment at 50 mg/l, PDA plate medium; read-out: growth inhibition grade
Procedure: as §1

Penicillium sp. = assay: Plate medium assay, industrial material deteriorating microorganism, Penicillium (Experimental Example 5); type: cell-based; details: treatment at 50 mg/l, PDA plate medium, read-out: growth inhibition grade
Procedure: as §1

Puccinia recondita [3] = assay: Efficacy test against wheat brown rust, 1 mg/L (Experimental Example 10); type: in vivo; details: 1 g/ha (1 mg/L sprayed at 1,000 L/ha)
Puccinia recondita [4] = assay: Efficacy test against wheat brown rust, 100 mg/L and 10 mg/L (Experimental Example 2); type: in vivo; details: nine to 14 days after inoculation; for efficacy compared with compound (1): 10 mg/L sprayed at 1,000 L/ha; for pest or weed control at 100 µg/mL: Puccinia recondita, 336 h, 100 mg/L sprayed at 1,000 L/ha, read-out: Protective value
Procedure: Onto a wheat plant (variety: NORIN No. 61) grown to the two-leaf phase using a square plastic pot (6 cm×6 cm), a wettable formulation such as Formulation Example 1 which was diluted and suspended in water at a certain concentration (100 mg/L and 10 mg/L) was sprayed at a rate of 1,000 L/ha. The sprayed leaves were air-dried, and inoculated with spore suspension of Puccinia recondita (adjusted at 200 spores/vision, […] was added at 60 ppm) by spraying, and kept at 25 degrees C. and a high humidity for 48 hours. Thereafter, the plant was kept in a greenhouse. Nine to 14 days after inoculation, the wheat brown rust lesion degree was investigated, and the protective value was calculated by the following equation. Protective value (%)=(1-lesion degree in sprayed plot/lesion degree in unsprayed plot)×100

Curvularia sp. = assay: Plate medium assay, industrial material deteriorating microorganism, Curvularia (Experimental Example 5); type: cell-based; details: treatment at 50 mg/l, PDA plate medium, read-out: growth inhibition grade
Procedure: as §1

Septoria tritici [5] = assay: Assay for fungicidal effect on Septoria tritici, plate medium 0.02 mg/L (Experimental Example 7); type: cell-based; details: Zymoseptoria tritici, read-out: grade (growth inhibition grade)
Description: In this Experimental Example, the fungicidal effects of the inventive compounds on a phytopathogenic fungi, Septoria tritici were examined and compared to the Comparative Compound (3) described in Patent Literature 1 (JPA01-93574) by the methods described below. […] The subject microorganism previously cultured on a plate medium was cut out using a cork borer whose diameter was 4 mm, and inoculated to the test compound-containing plate medium described above. […] The growth degree of the microorganism on the test compound-containing plate medium thus observed was compared with the growth degree of the microorganism in the untreated group, and % mycelial growth inhibition was calculated by the following equation. R=100(dc−dt)/dc wherein R=% mycelial extension inhibition, dc=flora diameter in untreated plate, dt=flora diameter in treated plate. The results obtained as described above were evaluated as one of the 5 grades according to the following criteria. <Growth Inhibition Grade> […]

SMILES | inhibition at 1.25 µg/mL (Septoria tritici [1]) [%] | inhibition at 50 µg/mL (Aureobasidium sp.) [%] | inhibition at 50 µg/mL (Coriolus versicolor) [%] | pest or weed control at 50 µg/mL (Botrytis cinerea) [%] | pest or weed control at 100 µg/mL (Botrytis cinerea) [%] | inhibition at 50 µg/mL (Aspergillus sp.) [%] | EC80 (Septoria tritici [2]) [µg/mL] | inhibition at 50 µg/mL (Tyromyces palustris) [%] | inhibition at 50 µg/mL (Penicillium sp.) [%] | lesion degree (Puccinia recondita [3]) | efficacy compared with compound (1) (Puccinia recondita [4]) | pest or weed control at 100 µg/mL (Puccinia recondita [4]) [%] | inhibition at 50 µg/mL (Curvularia sp.) [%] | inhibition at 0.02 µg/mL (Septoria tritici [5]) [%] | growth inhibition grade (Septoria tritici [1])
C[C@]1(CCl)CC[C@@H](Cc2ccc(Cl)cc2)[C@]1(O)Cn1cncn1 (racemic) [Compound I-1, (1RS,2SR,5SR)-5-(4-chlorobenzyl)-2-chloromethyl-2-methyl-1-(1H-1,2,4-triazol-1-ylmethyl)cyclopentanol] | > 80 | 60 to 80 | 60 to 80 | ≥ 80 | ≥ 80 | 60 to 80 | ≤ 0.2 | 60 to 80 | 60 to 80 | 0.5 (Less than 1%) | higher efficacy than that of compound (1) | ≥ 90 | 60 to 80 |  | 
C[C@]1(CCl)CC[C@@H](Cc2ccccc2)[C@]1(O)Cn1cncn1 (racemic) [Compound I-73, (1RS,2SR,5SR)-2-chloromethyl-5-benzyl-2-methyl-1-(1H-1,2,4-triazol-1-ylmethyl)cyclopentanol] | > 80 | 60 to 80 | 60 to 80 | ≥ 80 | ≥ 80 | 60 to 80 | ≤ 0.2 | 60 to 80 | 60 to 80 | 0.5 (Less than 1%) | higher efficacy than that of compound (1) | ≥ 90 | 60 to 80 | > 80 | 
C[C@]1(CCl)CC[C@@H](Cc2ccc(F)cc2)[C@]1(O)Cn1cncn1 (racemic) [Compound I-77, (1RS,2SR,5SR)-2-chloromethyl-5-(4-fluorobenzyl)-2-methyl-1-(1H-1,2,4-triazol-1-ylmethyl)cyclopentanol] | > 80 | 60 to 80 | 60 to 80 | ≥ 80 | ≥ 80 | 60 to 80 | ≤ 0.2 | 60 to 80 | 60 to 80 | 0.5 (Less than 1%) | higher efficacy than that of compound (1) | ≥ 90 | 60 to 80 | > 80 | 
C[C@@]1(CCCl)CC[C@@H](Cc2ccc(Cl)cc2)[C@]1(O)Cn1cncn1 (racemic) [Compound I-104, (1RS,2SR,5SR)-5-(4-chlorobenzyl)-2-(2-chloroethyl)-2-methyl-1-(1H-1,2,4-triazol-1-ylmethyl)cyclopentanol] |  | 60 to 80 | 60 to 80 | ≥ 80 | ≥ 80 | 60 to 80 | ≤ 0.2 | 60 to 80 | 60 to 80 |  | higher efficacy than that of compound (1) | ≥ 90 | 60 to 80 |  | 
C[C@]1(CBr)CC[C@@H](Cc2ccc(F)cc2)[C@]1(O)Cn1cncn1 (racemic) [Compound I-601, (1RS,2SR,5SR)-2-bromomethyl-5-(4-fluorobenzyl)-2-methyl-1-(1H-1,2,4-triazol-1-ylmethyl)cyclopentanol] |  | 60 to 80 | 60 to 80 | ≥ 80 | ≥ 80 | 60 to 80 | ≤ 0.2 | 60 to 80 | 60 to 80 |  | higher efficacy than that of compound (1) | ≥ 90 | 60 to 80 |  | 
C[C@]1(CBr)CC[C@@H](Cc2ccccc2)[C@]1(O)Cn1cncn1 (racemic) [Compound I-602, (1RS,2SR,5SR)-2-bromomethyl-5-benzyl-2-methyl-1-(1H-1,2,4-triazol-1-ylmethyl)cyclopentanol] |  | 60 to 80 | 60 to 80 | ≥ 80 | ≥ 80 | 60 to 80 | ≤ 0.2 | 60 to 80 | 60 to 80 |  | higher efficacy than that of compound (1) | ≥ 90 | 60 to 80 |  | 
CC1(C)CCC(Cc2ccc(Cl)cc2)C1(O)Cn1ncnc1S (racemic) [compound (2)] |  |  |  |  |  |  |  |  |  | 5 (50% or higher) |  |  |  |  | 1 (% Mycerial growth inhibition of less than 20%)
C[C@]1(CCl)CC[C@@H](Cc2ccc(F)cc2F)[C@]1(O)Cn1cncn1 (relative stereo) [Compound I-88] |  |  |  |  |  |  |  |  |  | 0.5 (Less than 1%) | higher efficacy than that of compound (1) |  |  |  | 5 (% Mycerial growth inhibition of 80% or higher)
